In US8841312B2, “Fused pyridine, pyrimidine and triazine compounds as cell cycle inhibitors” (Amgen Inc., priority 2007, dated 2014):
pIC50: −log10 of the molar value.

target: Cdk4/CyclinD1 (Homo sapiens (Human), UniProt P11802); assay: Cdk4 kinase inhibition assay with recombinant Cdk4/CyclinD1, Rb substrate, [33P]-ATP filter plate; assay type: biochemical; settings: 25 μM ATP, read-out: Cdk 4 IC50
Method: The Cdk4 and Cdk6 inhibitory activity of the compounds is measured with a kinase inhibition assay using recombinant Cdk4/CyclinD1 or Cdk6/CyclinD3 protein complexes. The protein substrate used in the assay is the retinoblastoma protein (Rb). The kinase reactions are carried out in a 96-well filter plate (MSDV N6B50, Millipore). […] The mixture is incubated at room temperature for 1 hour and the proteins precipitated with an equal volume of 20% TCA. The plates are washed with 10% TCA according to the manufacturer's instruction and dried at room temperature. The amount of the phosphorylated Rb is determined with a TopCount (PerkinElmer). The IC50 of a compound is determined by nonlinear regression curve fitting using software program Prism 5 (GraphPad Software).

Cdk4/CyclinD1, sequence (P11802 whole entry): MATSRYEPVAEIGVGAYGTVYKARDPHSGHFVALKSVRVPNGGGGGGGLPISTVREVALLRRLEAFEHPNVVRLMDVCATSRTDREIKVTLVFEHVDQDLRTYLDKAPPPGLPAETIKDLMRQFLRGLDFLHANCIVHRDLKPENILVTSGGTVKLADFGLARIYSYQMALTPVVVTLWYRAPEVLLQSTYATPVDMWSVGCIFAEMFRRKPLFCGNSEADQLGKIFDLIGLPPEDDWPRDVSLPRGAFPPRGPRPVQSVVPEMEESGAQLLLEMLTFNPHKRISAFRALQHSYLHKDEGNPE
Cdk4/CyclinD1, sequence (P24385 whole entry partner): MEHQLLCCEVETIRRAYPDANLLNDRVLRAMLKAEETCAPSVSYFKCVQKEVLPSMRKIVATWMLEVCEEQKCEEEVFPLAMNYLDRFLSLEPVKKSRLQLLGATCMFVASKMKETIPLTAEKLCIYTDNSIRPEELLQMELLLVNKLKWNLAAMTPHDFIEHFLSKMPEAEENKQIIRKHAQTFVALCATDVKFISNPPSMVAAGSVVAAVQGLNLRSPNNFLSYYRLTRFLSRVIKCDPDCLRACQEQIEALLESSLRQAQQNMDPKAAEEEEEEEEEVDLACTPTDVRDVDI

| SMILES | pIC50 |
| --- | --- |
| CC[C@H](C)n1c2cnccc2c2cnc(Nc3ccc(N4CCC(N(C)C)CC4)cn3)nc21 [Example 326] | 6.21 |
| Fc1cncc2c1c1cnc(Nc3ccc(N4CCNCC4)cn3)nc1n2C1CCCC1 [Example 58, 9-Cyclopentyl-5-fluoro-N-(5-(1-piperazinyl)-2-pyridinyl)-9H-pyrido[4′,3′:4,5]pyrrolo[2,3-d]pyrimidin-2-amine] | 8.28 |
| CC1(C)CN(c2ccc(Nc3ncc4c5ccncc5n([C@H]5CCC[C@@H]5O)c4n3)nc2)CCN1 [Example 402] | 6.76 |
| C[C@H](CO)n1c2cnccc2c2cnc(Nc3ccc(N4CCN[C@@H](C)C4)cn3)nc21 [Example 381] | 5.70 |
| C[C@H]1CN(c2ccc(Nc3ncc4c5ccncc5n([C@H]5CCC[C@H]5O)c4n3)nn2)CCN1 [Example 363] | 6.68 |
| C[C@H]1CNCCN1c1ccc(Nc2ncc3c4ccnc(F)c4n(C4CCCC4)c3n2)nc1 [Example 177, 9-Cyclopentyl-8-fluoro-N-(5-((2S)-2-methyl-1-piperazinyl)-2-pyridinyl)-9H-pyrido[4′,3′:4,5]pyrrolo[2,3-d]pyrimidin-2-amine] | 8.30 |
| C[C@@H](O)Cn1c2cnccc2c2cnc(Nc3ccc(N4CCC(N(C)C)CC4)nn3)nc21 [Example 416] | 6.57 |
| C[C@H]1CN(c2cnc(Nc3ncc4c5ccncc5n(C5CCCC5)c4n3)cn2)CCN1 [Example 81] | 8.04 |
| O[C@@H]1CCN(c2ccc(Nc3ncc4c5ccncc5n([C@H]5CCOC5)c4n3)nc2)C1 [Example 396] | 6.62 |
| CN(C)C1CCN(c2ccc(Nc3ncc4c5ccncc5n([C@H]5CCOC5)c4n3)nn2)CC1 [Example 395] | 6.52 |
| N#CCC1CCN(c2ccc(Nc3ncc4c5ccnc(F)c5n(C5CCCC5)c4n3)nc2)CC1 [Example 173, (1-(6-((9-Cyclopentyl-8-fluoro-9H-pyrido[4′,3′:4,5]pyrrolo[2,3-d]pyrimidin-2-yl)amino)-3-pyridinyl)-4-piperidinyl)acetonitrile] | 7.25 |
| COCC(C)(C)n1c2cnccc2c2cnc(Nc3ccc(N4CCC(N(C)C)CC4)nn3)nc21 [Example 274, N-(6-(4-(dimethylamino)-1-piperidinyl)-3-pyridazinyl)-9-(2-methoxy-1,1-dimethylethyl)-9H-pyrido[4′,3′:4,5]pyrrolo[2,3-d]pyrimidin-2-amine] | 6.00 |
| C[C@H]1CN(c2ccc(Nc3ncc4c5ccncc5n([C@H]5CCC[C@@H]5O)c4n3)nn2)CCN1 [Example 407] | 7.46 |
| OC[C@@H]1CN(c2ccc(Nc3ncc4c5ccnc(F)c5n(C5CCCC5)c4n3)nc2)CCN1 [Example 199, ((2S)-4-(6-((9-cyclopentyl-8-fluoro-9H-pyrido[4′,3′:4,5]pyrrolo[2,3-d]pyrimidin-2-yl)amino)-3-pyridinyl)-2-piperazinyl)methanol] | 8.35 |
| CN1CCN(c2nc(Nc3ncc4c5ccncc5n(C5CCCC5)c4n3)ns2)CC1 [Example 133] | 7.00 |
| NCC1CCN(c2ccc(Nc3ncc4c5ccncc5n(C5CCCC5)c4n3)nc2)CC1 [Example 60, 4-Aminomethyl-1-(6-((9-cyclopentyl-9H-pyrido[4′,3′:4,5]pyrrolo[2,3-d]pyrimidin-2-yl)amino)-3-pyridinyl)-piperidine] | 8.40 |
| C[C@@H](O)Cn1c2cnccc2c2cnc(Nc3ccc(N4CCNC(C)(C)C4)nn3)nc21 [Example 418] | 6.95 |
| CC1(C)CCC(n2c3cnccc3c3cnc(Nc4ccc(N5CCC(N6CCCC6)CC5)cn4)nc32)CC1 [Example 206, 9-(4,4-dimethylcyclohexyl)-N-(5-(4-(1-pyrrolidinyl)-1-piperidinyl)-2-pyridinyl)-9H-pyrido[4′,3′:4,5]pyrrolo[2,3-d]pyrimidin-2-amine] | 7.85 |

| SMILES | pIC50 |
| --- | --- |
| CN(C)C1CCN(c2cnc(Nc3ncc4c5ccncc5n(C5CCCC5)c4n3)cn2)CC1 [Example 85] | 7.70 |
| CN(C)C1CCN(c2ccc(Nc3ncc4c5ccncc5n(C5CCSCC5)c4n3)nc2)CC1 [Example 276, N-(5-(4-(dimethylamino)-1-piperidinyl)-2-pyridinyl)-9-(tetrahydro-2H-thiopyran-4-yl)-9H-pyrido[4′,3′:4,5]pyrrolo[2,3-d]pyrimidin-2-amine] | 7.02 |
| CC1(C)CN(c2ccc(Nc3ncc4c5cc[nH]c(=O)c5n(C5CCCC5)c4n3)nn2)CCN1 [Example 130] | 7.70 |
| C[C@H](CO)n1c2cnccc2c2cnc(Nc3ccc(N4CCC(N(C)C)CC4)nn3)nc21 [Example 385] | 6.67 |
| CC(C)(O)CN1CCN(c2ccc(Nc3ncc4c5ccnc(F)c5n(C5CCCC5)c4n3)nc2)CC1 [Example 172, 1-(4-(6-((9-Cyclopentyl-8-fluoro-9H-pyrido[4′,3′:4,5]pyrrolo[2,3-d]pyrimidin-2-yl)amino)-3-pyridinyl)-1-piperazinyl)-2-methyl-2-propanol] | 8.25 |
| CNC1CCN(c2ccc(Nc3ncc4c5ccncc5n([C@@H]5CCOC5)c4n3)nc2)CC1 [Example 431] | 7.92 |
| C[C@@H](CO)n1c2cnccc2c2cnc(Nc3ccc(N4CC[C@@H](O)C4)nn3)nc21 [Example 374] | 7.07 |
| C[C@H](CO)n1c2cnccc2c2cnc(Nc3ccc(N4CCNCC4)cn3)nc21 [Example 375] | 7.40 |
| c1cc2c3cnc(Nc4cnc(NC5CCNCC5)cn4)nc3n(C3CCCC3)c2cn1 [Example 83] | 7.92 |
| c1ccc(-n2c3cnccc3c3cnc(Nc4ccc(N5CCNCC5)cc4)nc32)cc1 [Example 17, (9-Phenyl-9H-pyrido[4′,3′:4,5]pyrrolo[2,3-d]pyrimidin-2-yl)-(4-piperazin-1-yl-phenyl)amine] | 9.49 |
| CNC1CCN(c2ccc(Nc3ncc4c5ccncc5n([C@H]5CCC[C@H]5O)c4n3)nn2)CC1 [Example 364] | 6.59 |
| C[C@@H](CO)n1c2cnccc2c2cnc(Nc3ccc(N4CCNC(C)(C)C4)nn3)nc21 [Example 379] | 7.96 |
| CCN(CC)C1CCN(c2ccc(Nc3ncc4c5ccnc(OC)c5n(C5CCCC5)c4n3)nc2)CC1 [Example 285, 9-cyclopentyl-N-(5-(4-(diethylamino)-1-piperidinyl)-2-pyridinyl)-8-methoxy-9H-pyrido[4′,3′:4,5]pyrrolo[2,3-d]pyrimidin-2-amine] | 8.59 |
| OCCN1CCN(c2ccc(Nc3ncc4c5ccnc(F)c5n(C5CCCC5)c4n3)nc2)CC1 [Example 170, 2-(4-(6-((9-Cyclopentyl-8-fluoro-9H-pyrido[4′,3′:4,5]pyrrolo[2,3-d]pyrimidin-2-yl)amino)-3-pyridinyl)-1-piperazinyl)ethanol] | 8.60 |
| C[C@H]1CN(c2ccc(Nc3ncc4c5ccnc(F)c5n(C5CCCC5)c4n3)nc2)CCN1 [Example 179, 9-cyclopentyl-8-fluoro-N-(5-((3S)-3-methyl-1-piperazinyl)-2-pyridinyl)-9H-pyrido-[4′,3′:4,5]pyrrolo[2,3-d]pyrimidin-2-amine] | 8.47 |
| C[C@@H](O)Cn1c2cnccc2c2cnc(Nc3ccc(N4CC[C@@H](O)C4)nn3)nc21 [Example 419] | 6.79 |
| NC(=O)CC1CCN(c2ccc(Nc3ncc4c5ccnc(F)c5n(C5CCCC5)c4n3)nc2)CC1 [Example 176, 2-(1-(6-((9-Cyclopentyl-8-fluoro-9H-pyrido[4′,3′:4,5]pyrrolo[2,3-d]pyrimidin-2-yl)amino)-3-pyridinyl)-4-piperidinyl)acetamide] | 6.03 |
| O[C@@H]1CCN(c2ccc(Nc3ncc4c5ccncc5n([C@H]5CCOC5)c4n3)nn2)C1 [Example 397] | 6.47 |
